Read-outs that look alike come from different tables or passages of the source.
How the values were obtained:
[1] = Dissolution in pH-adjusted aqueous solution; assay type: physicochemical; conditions: pH adjusted to ˜6.6 (6.5-6.7)
From the text: The natural pH of tear fluid is 7.4; however, discomfort for the user will not be felt as long as the pH of the administered medication stays in the range of 6.6-7.8 (Sampath Kumar et al., “Recent Challenges and Advances in Ophthalmic Drug Delivery System,” in The Pharma Innovation, Vol. 1, No. 4 (2012)). Others administer eye drops at a pH of 5.5 and find this pH to be optimal.

[2] = test system: ocular inflammatory disease; conditions: cited from earlier work
nitric oxide levels = conditions: cited from earlier work
[3] = cited from earlier work; for peak plasma level: oral
thrombus formation = conditions: arterial circulation of the brain, rabbit model; cited from earlier work
cAMP levels = conditions: in-vitro, in comparison to a control; cited from earlier work
[4] = cited from earlier work

Q: What does the source list for OCCN(CCO)c1nc(N2CCCCC2)c2nc(N(CCO)CCO)nc(N3CCCCC3)c2n1 [dipyridamole, 2,6-bis (diethanolamino)-4,8-dipiperidinopyrimido [5,4-d] pyrimidine]?
A: dissolution in aqueous solution [1]: fully dissolves; effect in ocular inflammatory disease ([2]; systemically administered): significant beneficial effect; effect in ocular inflammatory disease ([2]; topically administered (in liquid formulation)): ineffective; effect on nitric oxide levels (nitric oxide levels): increases nitric oxide levels; half-life, third phase of tri-exponential decline ([3]; IV or oral 20-50 mg, followed up to 60 hours): 10 to 12 h; peak plasma level ([3]; after a 25 mg dose): about 0.5 g/mL; peak plasma level ([3]; after a 75 mg dose): 1.6 µg/mL; distribution half-life ([3]; humans, after oral administration): about 3 hours; time to peak plasma levels ([3]; humans, following oral administration): 1 to 3 h; distribution half-life ([3]; humans, intravenous (IV) administration): about 25 minutes; effect on thrombus formation (thrombus formation): reduce thrombus formation; effect on cAMP levels (cAMP levels): negligible effect; solubility in methanol ([4]; methanol): very soluble; solubility in water ([4]; water): practically insoluble

Source: patent US10973758B2 (O.D. Ocular Discovery Ltd., priority 2013, dated 2021)
